Measurements as given in the Kinase Knowledgebase extract (Sharma et al. 2016).

Biological target: CDK2 (UniProt P24941)
Test: Enzyme Assay

Structure (SMILES)	IC50 [µM]
CC(=O)Nc1ncc(SC(F)c2ncc(C(C)C)o2)s1 (centres undefined)	< 50
CC(C)(C)c1cnc(CSc2cnc(NC(=NC#N)Nc3c(F)cccc3F)s2)o1	< 50
CCc1coc(CSc2cnc(NC(C)O)s2)n1 (centres undefined)	< 50
CC(C)(C)c1cnc(CSc2cnc(Nc3ccc(S(=O)(=O)NCCO)cc3)s2)o1	< 50
CC(C)(CO)CNCc1ccc(Nc2ncc(SCc3ncc(C(C)(C)C)o3)s2)nc1	< 50
CCc1cnc(CSc2cnc(NC(=O)c3ccccc3)s2)o1	< 50

More lines, now with the values ahead:

IC50 [µM]	Structure (SMILES)
< 50	CC(C)(C)c1cnc(CSc2cnc(Nc3ccccn3)s2)o1
< 50	CC(C)(C)c1cnc(CSc2cnc(Nc3cccc(CO)c3)s2)o1
< 50	CC(C)(C)c1cnc(CSc2cnc(Nc3ccncn3)s2)o1
< 50	CCc1cnc(CSc2cnc(NC(C)=O)s2)o1
< 50	CC(C)(C)c1cnc(CSc2cnc(Nc3ccc(S(N)(=O)=O)cc3)s2)o1
< 50	CC(=O)Nc1ncc(SCc2ncc(C(C)(C)C)o2)s1
< 50	CC(C)(C)C(=O)Cc1ncc(SCc2ncc(C(C)(C)C)o2)s1
< 50	CC(=O)Nc1ncc(SCc2nc(C)c(C)o2)s1
